Assay results taken from US4272437A, “Antibacterial agents, and 4-thio azetidinone intermediates” (priority 1979, dated 1981).
Converted amounts (≈) assume the structure as drawn.

Tests used:
Staph. aureus A-9537 = experiment: MIC, tube dilution, Staphylococcus aureus A9537; type: cell-based; settings: Staphylococcus aureus, A9537, Staph. aureus A9537; overnight 37° C., Nutrient Broth; read-out: Minimum Inhibitory Concentration (M.I.C.)
Text: (§1) Representative compounds of the present invention were subjected to in vitro antibiotic screening against a variety of microorganisms.

[1] = tested on: Klebsiella species A20468; experiment: MIC, tube dilution, Klebsiella species A20468; type: cell-based; settings: Klebsiella species (K. pneumoniae) A20468; overnight 37° C.; read-out: Minimum Inhibitory Concentration (M.I.C.)
Text: as §1

Proteus vulgaris A21559 = experiment: MIC, tube dilution, Proteus vulgaris A21559; type: cell-based; settings: Proteus vulgaris, A21559, Proteus vulgaris A21559; overnight 37° C.; read-out: Minimum Inhibitory Concentration (M.I.C.)
Text: as §1

S. aureus A9606 = experiment: In vivo protection of mice, lethal infection with S. aureus A9606; settings: Staphylococcus aureus, IM, 2 treatments, 8 × 10^8 organisms, read-out: PD50
Experimental: Representative compounds of the present invention were also tested in vivo in mice and their PD50 (dose of compound in mg/kg required to protect 50% of the treated mice against an otherwise lethal infection of a micro-organism) values determined with respect to the test organisms shown below.

NCCCCC1=C(C(=O)O)N2C(=O)CC2S1 (stereo not shown) [Example 73, 2-(4'-Aminobutyl)-penem-3-carboxylic Acid] was tested, and the MIC (Staph. aureus A-9537) was 0.25 µg/mL (≈ 1.03 µM), the MIC [1] was > 125 µg/mL and the MIC (Proteus vulgaris A21559) was 32 µg/mL (≈ 132 µM). For the same compound, the ED50 (S. aureus A9606) was 6.3 mg/kg.
